According to patent EP4559908A1, “HETEROARYL DERIVATIVE COMPOUND AND USE THEREOF” (S2CBio Inc., priority 2022, dated 2024):
Read-outs that look alike come from different tables or passages of the source.

Biological target: T1, human ANO6 (variant 5) (Homo sapiens, UniProt Q4KMQ2)
T1 construct: expressed in transfected cells; host or cells: Fischer rat thyroid (FRT) cells
T1 sequence (Q4KMQ2 1-931 isoform Q4KMQ2-2): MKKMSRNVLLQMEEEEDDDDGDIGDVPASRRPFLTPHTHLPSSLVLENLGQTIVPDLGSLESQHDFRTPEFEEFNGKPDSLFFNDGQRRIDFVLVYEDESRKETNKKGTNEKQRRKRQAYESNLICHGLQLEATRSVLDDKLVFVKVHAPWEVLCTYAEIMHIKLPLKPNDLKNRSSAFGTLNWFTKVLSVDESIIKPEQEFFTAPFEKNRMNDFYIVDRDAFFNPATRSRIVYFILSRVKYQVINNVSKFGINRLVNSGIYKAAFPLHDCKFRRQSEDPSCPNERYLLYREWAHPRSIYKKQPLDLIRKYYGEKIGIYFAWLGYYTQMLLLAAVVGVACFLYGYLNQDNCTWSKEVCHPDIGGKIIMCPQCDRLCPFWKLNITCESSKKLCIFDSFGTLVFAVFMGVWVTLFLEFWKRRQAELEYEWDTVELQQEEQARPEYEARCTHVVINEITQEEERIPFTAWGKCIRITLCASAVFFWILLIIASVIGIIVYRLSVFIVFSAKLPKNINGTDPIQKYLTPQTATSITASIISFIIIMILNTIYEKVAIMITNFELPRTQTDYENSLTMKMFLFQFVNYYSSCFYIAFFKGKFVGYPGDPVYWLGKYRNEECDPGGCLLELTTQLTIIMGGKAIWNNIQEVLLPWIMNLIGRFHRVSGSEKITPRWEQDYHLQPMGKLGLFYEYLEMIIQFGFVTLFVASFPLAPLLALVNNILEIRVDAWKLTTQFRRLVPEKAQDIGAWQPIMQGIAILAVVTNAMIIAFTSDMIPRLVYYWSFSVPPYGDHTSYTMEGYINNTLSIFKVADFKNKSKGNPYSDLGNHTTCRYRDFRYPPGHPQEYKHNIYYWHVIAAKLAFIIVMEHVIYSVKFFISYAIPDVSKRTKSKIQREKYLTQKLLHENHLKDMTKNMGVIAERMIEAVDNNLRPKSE
Experiment: Lact C2 assay (measuring phosphatidylserine externalization scramblase function)
Type: cell-based
Details: FRT; for inhibition at 0.05 µM: read-out: % Inhibition 50 nM; for inhibition at 1 µM: read-out: % Inhibition 1 µM
Procedure, shortened: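 Cells were pretreated 10 min with compound (50 nM, 100 nM, 1 µM; 1% DMSO), then given 10 µM ionomycin for 10 min. Surface phosphatidylserine was stained with 500 nM Lact-C2-GFP (10 min, 37 °C), fixed and imaged. Inhibition was scaled between untreated (100%) and ionomycin-alone (0%) wells.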

[1] = compound 50 nM, FRT cells expressing human ANO6 (variant 5), ionomycin 10 µM, Lact-C2-GFP fluorescence, average of three tests
[2] = compound 1 µM, FRT cells expressing human ANO6 (variant 5), ionomycin 10 µM, Lact-C2-GFP fluorescence, average of three tests

SMILES	inhibition at 0.05 µM [1]	inhibition at 1 µM [2]	inhibition at 0.05 µM	inhibition at 1 µM
c1cc(Nc2cnc(-c3ccncn3)cn2)cc(-c2nc3ccccc3[nH]2)c1 [Example 277, N-(3-(1H-benzo[d]imidazol-2-yl)phenyl)-5-(pyrimidin-4-yl)pyrazin-2-amine]	> 60%			
COc1ccc(-c2ccc(Nc3cccc(-c4nc5ccc(C(F)(F)F)cc5[nH]4)c3)cc2)nn1 [Example 278, N-(4-(6-methoxypyridazin-3-yl)phenyl)-3-(6-(trifluoromethyl)-1H-benzo[d]imidazol-2-yl)aniline]	> 60%			
CNc1ccc2nc(-c3cccc(Nc4ccc(-c5cccnn5)cc4)c3)[nH]c2c1 [Example 279, N-methyl-2-(3-((4-(pyridazin-3-yl)phenyl)amino)phenyl)-1H-benzo[d]imidazol-6-amine]		30 to 60%		
CN(Cc1ccccc1)c1ccc2nc(-c3cccc(Nc4ccc(-c5cccnn5)cc4)c3)[nH]c2c1 [Example 280, N-benzyl-N-methyl-2-(3-((4-(pyridazin-3-yl)phenyl)amino)phenyl)-1H-benzo[d]imidazol-6-amine]			30 to 60%	> 60%
Fc1cc2[nH]c(-c3cccc(Nc4ccc(-c5ccccn5)cn4)c3)nc2cn1 [Example 281, N-(3-(6-fluoro-1H-imidazo[4,5-c]pyridin-2-yl)phenyl)-[2,3'-bipyridin]-6'-amine]	> 60%	> 60%		
Clc1cc2[nH]c(-c3cccc(Nc4ccc(-c5ccccn5)cn4)c3)nc2cn1 [Example 282, N-(3-(6-chloro-1H-imidazo[4,5-c]pyridin-2-yl)phenyl)-[2,3'-bipyridin]-6'-amine]	30 to 60%	> 60%		
Fc1cc2nc(-c3cccc(Nc4ccc(-c5ccccn5)cn4)c3)[nH]c2cc1F [Example 283, N-(3-(5,6-difluoro-1H-benzo[d]imidazol-2-yl)phenyl)-[2,3'-bipyridin] -6'-amine]	> 60%	> 60%		
FC(F)Oc1ccc2nc(-c3cccc(Nc4ccc(-c5ccccn5)cn4)c3)[nH]c2c1 [Example 284, N-(3-(6-(difluoromethoxy)-1H-benzo[d]imidazol-2-yl)phenyl)-[2,3'-bipyridin]-6'-amine]	> 60%	> 60%		
FC(F)Oc1ccc2nc(-c3cccc(Nc4ncc(-c5ccccn5)cn4)c3)[nH]c2c1 [Example 285, N-(3-(6-(difluoromethoxy)-1H-benzo[d]imidazol-2-yl)phenyl)-5-(pyridin-2-yl)pyrimidin-2-amine]	> 60%	> 60%		
Fc1cc2[nH]c(-c3cccc(Nc4ncc(-c5ccccn5)cn4)c3)nc2cn1 [Example 286, N-(3-(6-fluoro-1H-imidazo[4,5-c]pyridin-2-yl)phenyl)-5-(pyridin-2-yl)pyrimidin-2-amine]		> 60%		
FC(F)Oc1ccc2nc(-c3cccc(Nc4ncc(-c5cccnn5)cn4)c3)[nH]c2c1 [Example 287, N-(3-(6-(difluoromethoxy)-1H-benzo[d]imidazol-2-yl)phenyl)-5-(pyridazin-3-yl)pyrimidin-2-amine]		30 to 60%		
FC(F)(F)c1cccc2nc(-c3cccc(Nc4ncc(-c5cccnn5)cn4)c3)[nH]c12 [Example 289, 5-(pyridazin-3-yl)-N-(3-(7-(trifluoromethyl)-1H-benzo[d]imidazol-2-yl)phenyl)pyrimidin-2-amine]		30 to 60%		
Fc1cccc2nc(-c3cccc(Nc4ncc(-c5cccnn5)cn4)c3)[nH]c12 [Example 290, N-(3-(7-fluoro-1H-benzo[d]imidazol-2-yl)phenyl)-5-(pyridazin-3-yl)pyrimidin-2-amine]		30 to 60%		
Fc1cc(F)c2[nH]c(-c3cccc(Nc4ncc(-c5cccnn5)cn4)c3)nc2c1 [Example 292, N-(3-(5,7-difluoro-1H-benzo[d]imidazol-2-yl)phenyl)-5-(pyridazin-3-yl)pyrimidin-2-amine]		30 to 60%		
FC(F)(F)c1cc2nc(-c3cccc(Nc4ncc(-c5cccnn5)cn4)c3)[nH]c2cc1Cl [Example 294, N-(3-(6-chloro-5-(trifluoromethyl)-1H-benzo[d]imidazol-2-yl)phenyl)-5-(pyridazin-3-yl)pyrimidin-2-amine]	30 to 60%	> 60%		
FC(F)(F)Oc1ccc2nc(-c3cccc(Nc4ncc(-c5cccnn5)cn4)c3)[nH]c2c1 [Example 295, 5-(pyridazin-3-yl)-N-(3-(6-(trifluoromethoxy)-1H-benzo[d]imidazol-2-yl)phenyl)pyrimidin-2-amine]	30 to 60%	> 60%		
FC(F)(F)c1ccc2nc(-c3cccc(Nc4ccc(-c5ccncn5)nn4)c3)[nH]c2c1 [Example 296, 6-(pyrimidin-4-yl)-N-(3-(6-(trifluoromethyl)-1H-benzo[d]imidazol-2-yl)phenyl)pyridazin-3-amine]		30 to 60%		
Fc1cc2nc(-c3cccc(Nc4cnc(-c5ccncn5)cn4)c3)[nH]c2cc1F [Example 297, N-(3-(5,6-difluoro-1H-benzo[d]imidazol-2-yl)phenyl)-5-(pyrimidin-4-yl)pyrazin-2-amine]	> 60%	> 60%		
Fc1cc2nc(-c3cccc(Nc4cnc(-c5ccccn5)cn4)c3)[nH]c2cc1F [Example 298, N-(3-(5,6-difluoro-1H-benzo[d]imidazol-2-yl)phenyl)-5-(pyridin-2-yl)pyrazin-2-amine]	30 to 60%	> 60%		
COc1ccc2nc(-c3cccc(Nc4cnc(-c5ccccn5)cn4)c3)[nH]c2c1 [Example 299, N-(3-(6-methoxy-1H-benzo[d]imidazol-2-yl)phenyl)-5-(pyridin-2-yl)pyrazin-2-amine]		> 60%		
FC(F)Oc1ccc2nc(-c3cccc(Nc4cnc(-c5ccccn5)cn4)c3)[nH]c2c1 [Example 300, N-(3-(6-(difluoromethoxy)-1H-benzo[d]imidazol-2-yl)phenyl)-5-(pyridin-2-yl) pyrazin-2-amine]	30 to 60%	> 60%		
Clc1cc2[nH]c(-c3cccc(Nc4cnc(-c5ccccn5)cn4)c3)nc2cn1 [Example 301, N-(3-(6-chloro-1H-imidazo[4,5-c]pyridin-2-yl)phenyl)-5-(pyridin-2-yl)pyrazin-2-amine]		> 60%		
FC(F)(F)c1ccc2nc(-c3cccc(Nc4cnc(-c5ccccn5)cn4)c3)[nH]c2c1 [Example 302, 5-(pyridin-2-yl)-N-(3-(6-(trifluoromethyl)-1H-benzo[d]imidazol-2-yl)phenyl)pyrazin-2-amine]	> 60%	> 60%		
Clc1cc2[nH]c(-c3cccc(Nc4ncc(-c5cscn5)cn4)c3)nc2cn1 [Example 303, N-(3-(6-chloro-1H-imidazo[4,5-c]pyridin-2-yl)phenyl)-5-(thiazol-4-yl)pyrimidin-2-amine]		> 60%		
FC(F)(F)c1ccc2nc(-c3cccc(Nc4ncc(-c5cscn5)cn4)c3)[nH]c2c1 [Example 304, 5-(thiazol-4-yl)-N-(3-(6-(trifluoromethyl)-1H-benzo[d]imidazol-2-yl)phenyl)pyrimidin-2-amine]	30 to 60%	> 60%		
Fc1ccnc(-c2ccc(Nc3cccc(-c4nc5ccc(C(F)(F)F)cc5[nH]4)c3)cc2)c1 [Example 305, N-(4-(4-fluoropyridin-2-yl)phenyl)-3-(6-(trifluoromethyl)-1H-benzo[d]imidazol-2-yl)aniline]	30 to 60%	> 60%		
FC(F)(F)c1ccc2nc(-c3ccnc(Nc4ncc(-c5ccccn5)cn4)c3)[nH]c2c1 [Example 306, 5-(pyridin-2-yl)-N-(4-(6-(trifluoromethyl)-1H-benzo[d]imidazol-2-yl)pyridin-2-yl)pyrimidin-2-amine]		30 to 60%		
FC(F)(F)c1ccc2nc(-c3cncc(Nc4ncc(-c5ccccn5)cn4)c3)[nH]c2c1 [Example 307, 5-(pyridin-2-yl)-N-(5-(6-(trifluoromethyl)-1H-benzo[d]imidazol-2-yl)pyridin-3-yl)pyrimidin-2-amine]		30 to 60%		
Brc1ccc2nc(-c3cccc(Nc4ccc(-c5cccnn5)cc4)c3)[nH]c2c1 [Example 308, 3-(6-bromo-1H-benzo[d]imidazol-2-yl)-N-(4-(pyridazin-3-yl)phenyl)aniline]	> 60%	> 60%		
